Data on eight compounds can be found in article PMC5285380, “Differential Ability of Bovine Antimicrobial Cathelicidins to Mediate Nucleic Acid Sensing by Epithelial Cells” (Frontiers in Immunology, 2017).

In brackets after ≈: the same amount, converted by molar mass. Bridge positions count the residues as written; N and C are the ends. Ends that are not written are not given here. Peptide text beside a SMILES is read from it.

Common to all, as to type: cell-based
The test system of assay [1] is Staphylococcus aureus M905-1. An excerpt:
(§1) All bacterial strains including S. aureus strains (M3842, M905-1, and M3850) ([22]), S. uberis strains (M100/11, BL246, and ALP8092) ([23]) and E. coli (9217/10) were isolated from bovine mastitis milk ([24]). All strains were maintained on Trypticase soy agar plates with 5% sheep blood (Becton Dickinson AG, Allschwil, Switzerland) and always freshly plated the day before the experiment. Bacterial colonies were suspended in 0.85% NaCl solution (Axon Lab AG, Baden, Switzerland) to reach an OD value of 0.5 (DensiCHECK PLUS, Biomérieux, Genève, Switzerland), corresponding to approximately 1–1.5 × 10^8 cell/ml. The minimum inhibitory concentration (MIC) of cathelicidins was determined by the broth microdilution method as previously described ([25]). Bacteria were further diluted to approximately 1 × 10^5 cells/ml in cation-adjusted Mueller-Hinton (MH) broth (Thermo Fisher Scientific). Several twofold peptide dilutions (40–0.3 µM) were prepared in a volume of 50 µl MH II broth (Becton Dickinson AG) in a round-bottom 96-well plate. Finally, 50 µl of 10^5 cells/ml were added to the peptide dilutions to reach a final concentration of 5 × 10^4 cells/ml.

Assay [2] concerns Staphylococcus aureus M3842.
From the text: as §1

Assay [3] relates to Staphylococcus aureus M3850.
From the text: as §1

Assay [4] has as its system Streptococcus uberis BL246.
From the text: as §1

In assay [5] the test system is Streptococcus uberis ALP8092.
From the text: as §1

Assay [6] concerns Escherichia coli 9217/10.
From the text: as §1

In assay [7] the test system is Streptococcus uberis M100/11.
From the text: as §1

Assay [8] relates to bovine neutrophils. The assay is described as follows: ROS in neutrophils (CM-H2DCFDA flow cytometry). The following applies: 100 ng/ml PMA for 10 min, then 1 h culture; three animals in duplicates. How it is done: Bovine neutrophil granulocytes were isolated as previously described with a few adaptations ([20], [21]). Bovine blood sampling was performed in compliance with the Swiss animal protection law and approved by the animal welfare committee of the Canton of Bern, Switzerland, license number BE102/15. Briefly, 200 ml of blood was drawn from the jugular vein of cows at the Clinic for Ruminants (Vetsuisse Faculty, University of Bern, Switzerland) and was directly mixed with citrate-based anti-coagulant Alsever’s solution (1.55 mM of C6H12O6, 408 mM of Na3C6H5O7⋅2H2O, 1.078 mM of NaCl, and 43 mM of C6H8O7, pH 6.2). […] Neutrophils were recovered in the pellet, washed once with PBS/EDTA, counted in Trypan blue solution, and resuspended at 5 × 10^7 cells/ml in RPMI 1640 medium (Biochrom GmbH, Berlin, Germany). […] Aliquots of 5 × 10^6 neutrophils per tube were used to quantify ROS. […]
Figure 6 Cathelicidins can be detected in the supernatants of phorbol myristate acetate (PMA)-activated neutrophils. […] (A) Forward and side scatter characteristics of neutrophils stimulated with PMA or left unstimulated were evaluated by flow cytometry (left). […] (B) Histogram overlay of CM-H2DCFDA fluorescence as an indicator of ROS formation. […]

Assay [9] relates to Mx1 in primary bovine turbinate epithelial cells (BT cells). The assay is described as follows: Mx1 induction in BT cells (western blot), nucleic acid sensing. The following applies: poly(I:C) alone, titration, 20 h, western blot (Figure S3). The protocol:
Primary bovine turbinate epithelial cells (BT cells) were obtained as previously described ([26]) and the cultures maintained in DMEM supplemented with 10% FBS, non-essential amino acids (NEAA), neomycin/bacitracin, penicillin/streptomycin (stock solutions purchased from Biochrom), and GlutaMAX (Thermo Fisher Scientific). BT cells were plated in 24-well plates at 50,000 cells/well and incubated for 18 h at 37°C in 5% CO2. For induction of Mx, cathelicidins were mixed with 100 ng/ml of poly(I:C) in a final volume of 1 ml, incubated for 10 min at room temperature, and then added to the cells. Alternatively, different dilutions of neutrophil-derived supernatants were mixed with poly(I:C) at 100 ng/ml in complete medium (DMEM with 10% FBS, NEAA, neomycin/bacitracin, penicillin/streptomycin, and GlutaMAX). Positive controls for Mx1 induction included cell treatment with 100 ng/ml of bovine rIFN-α and 1 µg/ml of poly(I:C). Cultures were further incubated at 37°C for 20 h. […]
Figure 5 Bovine myeloid antimicrobial peptide (BMAP)-27, sBAMP-27, BMAP-28, BMAP-34, and Bac1 promote nucleic acid sensing in primary epithelial cells. […] After 20 h incubation, Mx1 and β-actin were detected by western blot. […] After 20 h of culture, Mx1 and β-actin were detected by western blot. […]
For orientation: In western blotting, separated proteins are transferred to a membrane and probed.

What is called MIC is the lowest concentration found to suppress growth. Low values mean a more susceptible organism, high ones a less susceptible organism. Consider GGLRSLGRKILRAWKKYGPIIVPIIRIG [BMAP-28], for which the MIC in [1] worked out at 14.44 ± 5.27 µM; in assay [2], 13.33 ± 5 µM; in [3], 17.78 ± 4.41 µM; in [4] it was 10.00 ± 0 µM; in assay [5] it was 10.00 ± 0 µM; in assay [6] it was 10.00 ± 0 µM. Besides, in assay [7], the minimum inhibitory concentration (MIC) was found to be 10.00 ± 0 µM.

For GRFKRFRKKFKKLFKKLSPVIPLLHLG [BMAP-27], the MIC in [1] is 8.33 ± 2.5 µM; in assay [2] it was 5.00 ± 0 µM; in [3], 7.22 ± 2.64 µM; in [4] it was 4.17 ± 1.25 µM; in assay [5], 4.72 ± 0.83 µM; in [6], 2.50 ± 0 µM. Besides, the MIC in assay [7] was 2.78 ± 0.83 µM.

For “RFRPPIRRPPIRPPFYPPFRPPIRPPIFPPIRPPFRPPLGPFP [Bac5]”, the MIC was above 20 µM in assay [1]; above 20 µM in [2]; above 20 µM in assay [3]; 6.11 ± 2.2 µM in [4]; 20.00 ± 0 µM in assay [5]; above 20 µM in [6]. This compound also showed an MIC in [7] of 2.78 ± 0.83 µM.

With `CCCCCCCCCCCCCC(=O)O[C@@H]1[C@@H](C)[C@@]2(O)[C@@H](C=C(CO)C[C@]3(O)C(=O)C(C)=C[C@@H]23)[C@@H]2C(C)(C)[C@]12OC(C)=O` [PMA, phorbol myristate acetate], the “fluorescence intensity of CM-H2DCFDA (ROS indicator) compared to unstimulated neutrophils” value in assay [8] is listed as “significantly higher”.

As to GLPKLHFRRKKGKLVSFPLKFKFKIRL [sBMAP-27], the minimum inhibitory concentration (MIC) was 20.00 ± 0 µM in assay [1]; at least 20 ± 10 µM in assay [2]; 17.78 ± 4.41 µM in assay [3]; 5.56 ± 1.67 µM in [4]; 8.33 ± 2.5 µM in [5]; 10.00 ± 0 µM in [6]. The minimum inhibitory concentration (MIC) in [7] is 5.00 ± 0 µM.

`CC[C@H](C)[C@@H]1NC(=O)[C@H](CCCNC(=N)N)NC(=O)[C@@H](NC(=O)[C@H](CC(C)C)NC(=O)[C@@H](N)CCCNC(=N)N)CSSC[C@@H](C(=O)N[C@@H](CCCNC(=N)N)C(=O)O)NC(=O)[C@H](C(C)C)NC(=O)[C@H](CCCNC(=N)N)NC(=O)[C@H]([C@@H](C)CC)NC(=O)[C@H](C(C)C)NC(=O)[C@H](C(C)C)NC1=O` [Bac1] (H-RLCRIVVIRVCR-OH; disulfide 3-11): the MIC in assay [1] was above 20 µM; in assay [2], above 20 µM; in [3] it was at least 20 ± 6.67 µM; in assay [4] it was 20.00 ± 0 µM (≈ 29.7 µg/mL); in assay [5] it was at least 20 ± 10 µM; in assay [6], above 20 µM. Moreover, the MIC in assay [7] is 13.33 ± 5 µM (≈ 19.8 µg/mL).

In the case of “Polyinosinic–polycytidylic acid [poly(I:C)]”, the “concentration of poly(I:C) below which induction of Mx1 was not detectable” value in assay [9] turned out to be 156 ng/mL.

Take “AGLFRRLRDSIRRGQQKILEKARRIGERIKDIFRG [BMAP-34]”: the MIC worked out at 14.44 ± 5.27 µM in [1]; 12.22 ± 4.41 µM in assay [2]; 10.00 ± 0 µM in assay [3]; 4.17 ± 1.25 µM in assay [4]; 5.00 ± 0 µM in assay [5]; 5.00 ± 0 µM in [6]. Moreover, the minimal inhibitory concentration (MIC) in assay [7] turned out to be 5.00 ± 0 µM.
